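Interpolation was linear, between the two tested concentrations surrounding the appropriate level; five concentrations were tested over 48 hours in 96-well plates. The concentration for 50% growth inhibition is given as GI50. TGI: total growth inhibition.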
Key:
Experiment in all cases: DTP human tumour cell line panel, 48 h
SK-OV-3 ovarian = system: SK-OV-3 ovarian
IGROV1 ovarian = system: IGROV1 ovarian
HL-60(TB) leukemia = system: HL-60(TB) leukemia
RPMI-8226 leukemia = system: RPMI-8226 leukemia
SNB-75 CNS = system: SNB-75 CNS
SF-268 CNS = system: SF-268 CNS
SF-295 CNS = system: SF-295 CNS
HS 578T breast = system: HS 578T breast
HCT-116 colon = system: HCT-116 colon
SW-620 colon = system: SW-620 colon

Row | Structure (SMILES) | TGI (SK-OV-3 ovarian) | TGI (IGROV1 ovarian) | TGI (HL-60(TB) leukemia) | TGI (RPMI-8226 leukemia) | TGI (SNB-75 CNS) | TGI (SF-268 CNS) | TGI (SF-295 CNS) | TGI (HS 578T breast) | TGI (HCT-116 colon) | TGI (SW-620 colon) | GI50 (HCT-116 colon) | GI50 (SK-OV-3 ovarian) | GI50 (HL-60(TB) leukemia) | GI50 (SF-295 CNS) | GI50 (HS 578T breast) | GI50 (SW-620 colon)
1 | CSc1nc2ccccc2c(=O)n1-c1cccc(C)c1 | > 100 µM | > 100 µM | 9.77 µM | > 100 µM | > 100 µM | > 100 µM | > 100 µM | > 100 µM | > 100 µM | > 100 µM | – | – | – | – | – | –
2 | c1cc(-c2ccc(Oc3ccc(-c4ccncc4)cc3)cc2)ccn1 | > 100 µM | > 100 µM | 11.1 µM | 4.96 µM | > 73.7 µM | > 100 µM | > 100 µM | > 69.9 µM | > 100 µM | > 100 µM | – | – | – | – | – | –
3 | O=Cc1cc(O)ccc1Br | > 100 µM | > 100 µM | 5.39 µM | > 36 µM | > 100 µM | > 100 µM | 99.5 µM | > 100 µM | 47.8 µM | > 100 µM | – | – | – | – | – | –
4 | NC(=S)NS(=O)(=O)c1ccc(F)cc1 | > 100 µM | > 100 µM | > 100 µM | > 100 µM | > 100 µM | > 100 µM | > 100 µM | > 100 µM | > 100 µM | > 100 µM | – | – | – | – | – | –
5 | COc1ccc(OC)c(CC(=O)c2ccc(O)c(C(=O)NCCc3ccc(F)cc3)c2)c1 | 9.96 µM | 18.1 µM | 7.29 µM | 22.9 µM | 6.9 µM | 25 µM | 10.1 µM | 8.69 µM | 19.9 µM | > 100 µM | 4.05 µM | – | – | – | – | –
6 | CCCCCCCCCCCCCCCc1ccc(C(=O)C[n+]2ccccc2)cc1 | 3.34 µM | – | 2.52 µM | – | – | – | 14.2 µM | 4.25 µM | – | 1.54 µM | – | 1.71 µM | 0.531 µM | 0.653 µM | 1.75 µM | 0.394 µM
7 | Brc1ccc(C2(N3CCCCC3)CCCCC2)s1 | > 100 µM | > 100 µM | 41.8 µM | 39.5 µM | – | > 100 µM | > 100 µM | > 100 µM | > 100 µM | > 100 µM | – | – | – | – | – | –
8 | Nc1nc(SCC(=O)c2ccccc2)nc2nc3c(c(-c4ccccc4)c12)CCCC3 | 76.8 µM | – | > 100 µM | > 100 µM | 78.6 µM | 61.5 µM | – | 64 µM | > 100 µM | – | – | – | – | – | – | –
9 | CN(C)c1ccc(C=Nc2ccc(-c3nc4ccccc4o3)cc2)cc1 | > 100 µM | > 100 µM | 69.1 µM | – | > 100 µM | > 100 µM | – | > 100 µM | > 100 µM | > 100 µM | – | – | – | – | – | –
10 | O=C1c2cc([N+](=O)[O-])cnc2S(=O)(=O)N1c1ccc(Oc2ccccc2)cc1 | > 100 µM | > 100 µM | > 100 µM | > 100 µM | > 100 µM | – | > 100 µM | > 100 µM | > 100 µM | > 100 µM | – | – | – | – | – | –
11 | CCC1c2[nH]c3ccccc3c2C[C@H]2C(=O)NC(Cc3ccccc3)C(=O)N12 (stereo partly specified) | > 100 µM | 74.7 µM | 47.8 µM | 51.3 µM | – | 66.3 µM | 57.8 µM | 47.9 µM | 57.1 µM | > 100 µM | – | – | – | – | – | –
12 | O=C1C2=Cc3ccccc3CCN2c2ccc([N+](=O)[O-])cc21 | – | > 100 µM | > 100 µM | > 100 µM | > 100 µM | > 100 µM | > 100 µM | > 100 µM | > 100 µM | > 100 µM | – | – | – | – | – | –
13 | CCC/C(Cl)=N/OC(=O)Nc1cccc(F)c1 | 31 µM | 27.5 µM | – | 8.08 µM | 28.3 µM | > 54.4 µM | 32.5 µM | > 63.1 µM | 18.6 µM | 2.98 µM | – | – | – | – | – | –
14 | O=C1C(c2c(O)n(-c3ccccc3)c3ccccc23)=Nc2ccccc21 | > 100 µM | > 100 µM | – | > 100 µM | 40.4 µM | > 100 µM | > 100 µM | > 100 µM | > 100 µM | > 100 µM | – | – | – | – | – | –
15 | N/C(=N/O)c1cn(C2OC(CO)C(O)C2O)c2ncnc(NO)c12 (stereo unspecified) | – | > 51 µM | 0.76 µM | 1.86 µM | – | > 100 µM | 54.7 µM | > 100 µM | > 77.4 µM | > 46.1 µM | – | – | – | – | – | –
16 | c1ccc2c(-c3ccnc(-c4c[nH]c5ccccc45)n3)c[nH]c2c1 | > 100 µM | 14.7 µM | 30.8 µM | 4.61 µM | – | > 100 µM | > 100 µM | > 100 µM | 15.4 µM | 25.9 µM | – | – | – | – | – | –
17 | C=CCSC1=N/C(=C\c2ccco2)C(=O)N1CC=C | > 100 µM | > 100 µM | 60.2 µM | > 100 µM | – | > 100 µM | > 100 µM | > 100 µM | > 100 µM | > 100 µM | – | – | – | – | – | –
18 | CCCCC[C@H]1CC=CC(=O)O1 | 39.7 µM | 27.3 µM | 20.3 µM | 19.3 µM | – | 22.3 µM | 37.1 µM | 50.6 µM | 12.9 µM | 18.7 µM | – | – | – | – | – | –
19 | CN(N=O)C(N)=NC(=O)c1ccccc1 | > 100 µM | > 100 µM | – | > 100 µM | > 100 µM | > 100 µM | > 100 µM | > 100 µM | > 100 µM | > 100 µM | – | – | – | – | – | –
20 | Cc1oc2nc(N(C)C)n3c(C)nnc3c2c1C | > 100 µM | > 100 µM | – | > 100 µM | > 100 µM | > 100 µM | > 100 µM | > 100 µM | > 100 µM | > 100 µM | – | – | – | – | – | –
21 | CC1=NN(c2ccccc2Cl)C2(C1)SCC(=O)N2c1nc2ccccc2s1 (stereo unspecified) | > 100 µM | > 100 µM | – | > 100 µM | > 100 µM | > 100 µM | > 100 µM | > 100 µM | > 100 µM | > 100 µM | – | – | – | – | – | –
22 | COC(=O)[C@H]1[C@H](OC(=O)[C@@H](OC)c2ccccc2)ON2CC[C@@H](OC(=O)c3ccccc3)[C@H]12 | > 100 µM | > 100 µM | > 100 µM | > 100 µM | 65.1 µM | > 100 µM | > 100 µM | > 100 µM | > 100 µM | – | – | – | – | – | – | –
